Results reported in patent US20190241535A1, “3-SUBSTITUTED CARBONYL-NAPHTHO[2,3-B]FURANE DERIVATIVE OR PHARMACEUTICALLY ACCEPTABLE SALT THEREOF” (Boston Biomedical, Inc., priority 2014, published 2019).
≈ marks a conversion by molar mass, not a printed value. Like-named read-outs stand apart in the source and are kept apart here.

Key:
FaDu cell [1] = experiment: Test 1: growth inhibition in cancer cell (Bulk IC50); type: cell-based; conditions: Homo sapiens, 96 h, adherent culture, incubated 4 days, CellTiter-Glo
Experimental: (§1) HCT-116 cell, HT-29 cell, and FaDu cell were obtained from the American Type Culture Collection (ATCC). HCT-116 cell and HT-29 cell were cultivated at 37° C. in the presence of 5% CO2 using McCoy's 5a medium containing 10% fetal bovine serum (FBS), and 1% penicillin/streptomycin; and FaDu cell was cultivated at 37° C. in the presence of 5% CO2 using MEM containing 10% FBS, 1% non-essential amino acid, 1% sodium pyruvate, and 1% penicillin/streptomycin. Each cell was seeded on μClear-plate black 384 wells (Greiner bio-one Cat. No. 781091) in 300-600 cells/well, and then each test sample was added thereto to adjust the final concentration thereof in DMSO to 0.1% and the test wells were incubated for 4 days. And then, the viable cell count of each sample was measured using CellTiter-Glo® Luminescent Cell Viability Assay (Promega), and the concentration to inhibit the cell growth in each test sample by 50% was calculated (Bulk IC50 Value; μM).

HCT-116 cell [2] = experiment: as above; type: cell-based; conditions: Homo sapiens, 96 h, adherent culture, incubated 4 days, CellTiter-Glo
Experimental: as §1

HT-29 cell [3] = experiment: as above; type: cell-based; conditions: Homo sapiens, 96 h, adherent culture, incubated 4 days, CellTiter-Glo
Experimental: as §1

FaDu cell [4] = experiment: Test 2: inhibition of forming cancer cell sphere (Sphere IC50); type: cell-based; conditions: Homo sapiens, 96 h, ultra-low attachment plate, serum-free sphere medium, 4 days, CellTiter-Glo
Experimental: (§2) HCT-116 cell, HT-29 cell, and FaDu cell were obtained from the American Type Culture Collection (ATCC). HCT-116 cell and HT-29 cell were cultivated at 37° C. in the presence of 5% CO2 using McCoy's 5a medium containing 10% fetal bovine serum (FBS), and 1% penicillin/streptomycin; and FaDu cell was cultivated at 37° C. in the presence of 5% CO2 using MEM containing 10% FBS, 1% non-essential amino acid, 1% sodium pyruvate, and 1% penicillin/streptomycin. Each of HCT-116 cell, HT-29 cell, and FaDu cell was seeded on 384 Wells Black Clear Bottom Ultra-Low Attachment Microplate (Corning Cat. No. 3827) in 350-800 cells/well, with DMEM/F12 medium containing 2% B27 supplement (GIBCO), 20 ng/mL epidermal growth factor (EGF) (peprotech), 10 ng/mL basic fibroblast growth factor (bFGF) (peprotech), 5 μg/mL insulin (Sigma), and 1% penicillin/streptomycin. Each test sample was added thereto to adjust the final concentration thereof in DMSO to 0.1% and the test wells were incubated for 4 days. And then, the viable cell count of each sample was measured using CellTiter-Glo® Luminescent Cell Viability Assay (Promega), and the concentration to inhibit the cell growth in each test sample by 50% was calculated (Sphere IC50 Value;μM).

HCT-116 cell [5] = experiment: as above; type: cell-based; conditions: Homo sapiens, 96 h, ultra-low attachment plate, serum-free sphere medium, 4 days, CellTiter-Glo
Experimental: as §2

HT-29 cell [6] = experiment: as above; type: cell-based; conditions: Homo sapiens, 96 h, ultra-low attachment plate, serum-free sphere medium, 4 days, CellTiter-Glo
Experimental: as §2

Test 3: solubility test = type: physicochemical; conditions: kinetic from dmso stock, 1% DMSO, HPLC
Experimental: Each 15 μL of each test sample (10 mM DMSO solution) was dispensed into 4 Utubes on a 96 well rack. Then, each sample was evaporated to dryness with a rotary evaporator. 3 μL of DMSO was added to each dried sample to be re-dissolved. And, 300 μL of pH 7.4 buffer was added to the 2 wells and 300 μL of pH 1.2 buffer was added to the other 2 wells. After shaking each sample solution, the samples were still stood. Then, each sample solution was centrifuged to remove insoluble matter, and 100 μL of the supernatant was picked up on a 96 well plate. Separately, 2 μL of each test sample (10 mM DMSO solution) was dispensed on a 96 well plate, and diluted with 198 μL of 50% acetonitrile to prepare each 100 μM standard solution. Further, the 100 μM standard solution was diluted with 50% acetonitrile to prepare each 10 μM standard solution. The above test samples for the solubility test and the two kinds of the standard samples were analyzed with a HPLC. The solubility of each test sample was calculated as an area ratio per the standard solutions.

[7] = Test 5: concentration of the test compounds in tumor; type: in vivo; conditions: mouse, po, 25 mg/kg, 25 mg/kg po
Experimental: Administration method: The test compound scaled to a given weight was suspended in 0.5% methylcellulose to prepare an administration solution. A mouse was weighed, and the administration solution was orally administered to the mouse depending on its weight.
The picked tumor was put into a tube, and 1 mL of MeOH containing an internal standard was added to the tube. The internal standard used herein was bezafibrate, the concentration of which was 200 nM. The mixture was homogenized with an electric homogenizer to prepare a tumor extract. And, a blank tumor extract was prepared with a tumor derived from an un-treated animal in the same manner. The 100 μg/mL standard solution was diluted with MeOH to prepare a sample for calibration curve which has the desired concentration. To 50 μL of the sample for calibration curve was added 50 μL of the blank tumor extract to prepare a sample for tumor calibration curve. To 50 μL of the tumor extract was added 50 μL of MeOH to prepare a sample for analyzing tumor. Each 5 μL of the samples was analyzed with an LC-MS. The calibration curve was prepared based on the peak ratio of MS peak area of the test sample per that of the internal standard, and the concentration of the sample for tumor calibration curve. The concentration/weight of the test compound in each sample was calculated based on the peak ratio of each sample, and the calibration curve. Then, the obtained weight was divided by the weight in tumor to calculate the concentration of the test compound in tumor.

[8] = animal 1, read-out: Concentration in tumor, animal 1
[9] = animal 2, read-out: Concentration in tumor, animal 2

IC50 (FaDu cell [1]): 500 nM
IC50 (HCT-116 cell [2]): 530 nM
IC50 (HT-29 cell [3]): 640 nM
IC50 (FaDu cell [4]): 500 nM
IC50 (HCT-116 cell [5]): 530 nM
IC50 (HT-29 cell [6]): 640 nM
solubility (Test 3: solubility test; aqueous buffer, pH 7.4 buffer, read-out: Solubility pH 7.4): 138 µg/mL (≈ 352 µM)
solubility (Test 3: solubility test; simulated gastric fluid, pH 1.2 buffer, read-out: Solubility pH 1.2): 160 µg/mL (≈ 408 µM)
concentration at 2 hr [7, 8]: 498 ng/mL
concentration at 2 hr [7, 9]: 260 ng/mL
concentration at 2 hr ([7]; animal 3, read-out: Concentration in tumor, animal 3): 47 ng/mL
concentration at 2 hr ([7]; mean of 3, read-out: Concentration in tumor, mean): 268 ng/mL
concentration at 6 hr [7, 8]: 329 ng/mL
concentration at 6 hr [7, 9]: 157 ng/mL
SMILES: CN1CCN(C(=O)c2c(C(F)(F)F)oc3c2C(=O)c2ccccc2C3=O)CC1 [Example 8, 3-(4-Methylpiperazine-1-carbonyl)-2-(trifluoromethyl)naphtho[2,3-b]furan-4,9-dione]
